A word on the IC50: it is the concentration at which inhibition is half-maximal.

Structures can show the parent of a compound that is named as a salt. Where only a bound is given, the exact number is not on record here.

Experiment [1] deals with human MK2 (Homo sapiens, UniProt P49137). Briefly: MAPKAPK2 kinase assay (TR-FRET, Hsp27 peptide substrate). (Time-resolved FRET reads energy transfer from a long-lived donor to a nearby acceptor.)
The target in experiment [2] is T1, MAPKAPK2 enzyme (HIS-MK2, Invitrogen PV4019) (Homo sapiens, UniProt P49137).
T1 construct: His; purchased Invitrogen PV4019
T1 sequence (P49137 whole entry): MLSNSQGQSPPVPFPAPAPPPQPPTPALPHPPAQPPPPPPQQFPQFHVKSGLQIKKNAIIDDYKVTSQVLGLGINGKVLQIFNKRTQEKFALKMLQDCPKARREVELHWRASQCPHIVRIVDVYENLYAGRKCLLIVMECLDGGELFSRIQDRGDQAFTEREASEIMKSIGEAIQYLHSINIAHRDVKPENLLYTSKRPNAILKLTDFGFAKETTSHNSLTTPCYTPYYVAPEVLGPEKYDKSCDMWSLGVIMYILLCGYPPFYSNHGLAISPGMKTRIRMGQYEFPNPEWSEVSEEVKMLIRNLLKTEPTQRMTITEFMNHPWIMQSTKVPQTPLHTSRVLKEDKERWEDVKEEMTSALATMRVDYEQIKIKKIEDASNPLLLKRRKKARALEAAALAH
Briefly: Alternative MAPKAPK2 assay (Caliper microfluidic mobility shift, HSP27-peptide). The experiment is classed as biochemical. Particulars: HIS-MK2 0.013 nM, ATP 10 μM, 60 min at 30° C.

Chain of human MK2 (P49137 whole entry): as above

For the compound `O=C1NCC2(CC2)c2[nH]c3c(c21)CCc1cnc(/C=C/c2ccccc2)cc1-3` [Example 2, 2-(1-Aminomethyl-cyclopropyl)-8-((E)-styryl)-4,5-dihydro-1H-pyrrolo[2,3-f]isoquinoline-3-carboxylic acid lactame], in experiment [1], the midpoint of inhibition, the IC50, lay at 21 nM.

The compound `COCCOc1cncc(-c2cc3c(cn2)CCc2c-3[nH]c3c2C(=O)NC2(CCC2)C3)c1` [Example 3, 2-(1-Amino-cyclobutylmethyl)-8-[5-(2-methoxy-ethoxy)-pyridin-3-yl]-4,5-dihydro-1H-pyrrolo[2,3-f]isoquinoline-3-carboxylic acid lactame] gave an IC50 in experiment [1] of 63 nM.

With `O=C1NC2(CCC2)Cc2[nH]c3c(c21)CCc1cnc(/C=C/c2ccccc2)cc1-3` [Example 4, 2-(1-Amino-cyclobutylmethyl)-8-((E)-styryl)-4,5-dihydro-1H-pyrrolo[2,3-f]isoquinoline-3-carboxylic acid lactame], half-maximal inhibition in experiment [1] (IC50) required 65 nM.

On to `O=C1NC2(CC2)Cn2nc3c(c21)CCc1cnc(/C=C/c2ccccc2)cc1-3` [Example 10, 2-(1-Amino-cyclopropylmethyl)-8-((E)-styryl)-4,5-dihydro-2H-1,2,7-triaza-cyclopenta[a]naphthalene-3-carboxylic acid lactame], for which the IC50 in experiment [1] is greater than 10 nM.

In experiment [1], `COc1ccc(-c2cc3c(cn2)CCc2c-3nn3c2C(=O)NC2(CN(C(C)=O)C2)C3)cc1` [Example 12, 2-(1-Acetyl-3-amino-azetidin-3-ylmethyl)-8-(4-methoxy-phenyl)-4,5-dihydro-2H-1,2,7-triaza-cyclopenta[a]naphthalene-3-carboxylic acid lactame] gave an IC50 greater than 10 nM.

For the compound `COc1ccc(-c2ncc3c(n2)-c2[nH]c4c(c2CC3)C(=O)NC2(CNC2)C4)cc1` [Example 18, 2-(3-Amino-azetidin-3-ylmethyl)-8-(4-methoxy-phenyl)-4,5-dihydro-1H-1,7,9-triaza-cyclopenta[a]naphthalene-3-carboxylic acid lactame hydrochloride], in experiment [1], 18 nM corresponded to half-maximal inhibition (IC50).

The compound `O=C1NC2(CNC2)Cc2[nH]c3c(c21)CCc1cnc(-c2cccc(F)c2)cc1-3` [Example 24, 2-(3-Amino-azetidin-3-ylmethyl)-8-(3-fluoro-phenyl)-4,5-dihydro-1H-pyrrolo[2,3-f]isoquinoline-3-carboxylic acid lactam hydrochloride] showed an IC50 in experiment [1] of 13 nM.

For the compound `O=C(NCc1ccccc1)c1ccc(-c2cc3c(cn2)CCc2c-3[nH]c3c2C(=O)NC2(CC2)C3)o1` [Example 282, 5-(9,9-Spirocyclopropyl-7-oxo-6,7,8,9,10,11-hexahydro-5H-3,8,11-triaza-benzo[a]fluoren-2-yl)-furan-2-carboxylic acid benzylamide], the IC50 in experiment [2] is 21 nM.

Regarding `COc1ncc(-c2cc3c(cn2)CCc2c-3[nH]c3c2C(=O)NC2(CC2)C3)s1` [Example 283, 2-(1-Amino-cyclopropylmethyl)-8-(2-methoxy-5-thiazolyl)-4,5-dihydro-1H-pyrrolo[2,3-f]isoquinoline-3-carboxylic acid lactam], the IC50 in experiment [2] was determined as 98 nM.

Regarding `O=C1NC2(CNC2)Cc2[nH]c3c(c21)CCc1cnc(-c2cccc(Br)c2)nc1-3` [Example 285, 2-(3-Amino-azetidin-3-ylmethyl)-8-(3-bromo-phenyl)-4,5-dihydro-1H-1,7,9-triaza-cyclopenta[a]naphthalene-3-carboxylic acid lactam hydrochloride], the IC50 in experiment [2] is 7 nM.

Regarding `Cn1c2c(c3c1-c1nc(-c4cccc(Br)c4)ncc1CC3)C(=O)NC1(CNC1)C2` [Example 286, 2-(3-Amino-azetidin-3-ylmethyl)-8-(3-bromo-phenyl)-1-methyl-4,5-dihydro-1H-1,7,9-triaza-cyclopenta[a]naphthalene-3-carboxylic acid lactam hydrochloride], the IC50 in experiment [2] came out at 48 nM.

On to `Cn1c2c(c3c1-c1nc(-c4cccc(C#N)c4)ncc1CC3)C(=O)NC1(CNC1)C2` [Example 287, 2-(3-Amino-azetidin-3-ylmethyl)-8-(3-cyano-phenyl)-1-methyl-4,5-dihydro-1H-1,7,9-triaza-cyclopenta[a]naphthalene-3-carboxylic acid lactam hydrochloride], for which the IC50 in experiment [2] was 25 nM.

Regarding `O=C(NCc1ccccc1)c1cncc(-c2ncc3c(n2)-c2[nH]c4c(c2CC3)C(=O)NCC42CC2)c1` [Example 290, N-Benzyl-5-(10-spirocyclopropyl-7-oxo-6,7,8,9,10,11-hexahydro-5H-1,3,8,11-tetraaza-benzo[a]fluoren-2-yl)-nicotinamide], the IC50 in experiment [2] was 86 nM.

Take `Cn1c2c(c3c1-c1nc(-c4cncc(C(=O)NCc5ccccc5)c4)ncc1CC3)C(=O)NC1(CNC1)C2` [Example 296, 2-(3-Amino-azetidin-3-ylmethyl)-8-(3-benzylcarbamoyl-3-pyridyl)-1-methyl-4,5-dihydro-1H-1,7,9-triaza-cyclopenta[a]naphthalene-3-carboxylic acid lactam hydrochloride]: the IC50 in experiment [2] was 17 nM.

With `O=C1NCC2(CCC2)c2[nH]c3c(c21)CCc1cnc(-c2ccc(CN4CCOCC4)c(F)c2)cc1-3` [Example 298, 2-(3-Fluoro-4-morpholin-4-ylmethyl-phenyl)-10-spirocyclobutyl-5,6,8,9,10,11-exahydro-3,8,11-triaza-benzo[a]fluoren-7-one], in experiment [2], the IC50 was found to be 20 nM.

Regarding `COc1ccc(-c2cc3c(cn2)CCc2c-3[nH]c3c2C(=O)NCC32CCC2)cc1F` [Example 299, 2-(3-Fluoro-4-methoxy-phenyl)-10-spirocyclobutyl-5,6,8,9,10,11-hexahydro-3,8,11-triaza-benzo[a]fluoren-7-one], the IC50 in experiment [2] is 39 nM.

`O=C1NCC2(CCC2)c2[nH]c3c(c21)CCc1cnc(-c2ccc(F)nc2)cc1-3` [Example 300, 2-(6-Fluoro-pyridin-3-yl)-10-spirocyclobutyl-5,6,8,9,10,11-hexahydro-3,8,11-triaza-benzo[a]fluoren-7-one]: the IC50 in experiment [2] came out at 15 nM.

For `O=C1NCC2(CC2)c2[nH]c3c(c21)CCc1cnc(-c2cncc(N4CCOCC4)c2)cc1-3` [Example 302, 2-(5-Morpholin-4-yl-pyridin-3-yl)-10-spirocyclopropyl-5,6,8,9,10,11-hexahydro-3,8,11-triaza-benzo[a]fluoren-7-one], in experiment [2], the IC50 was 22 nM.

In the case of `CC(=O)N1CCN(c2ccc(-c3cc4c(cn3)CCc3c-4[nH]c4c3C(=O)NCC43CC3)cc2C#N)CC1` [Example 313, 2-(4-Acetyl-piperazin-1-yl)-10-spirocyclopropyl-5-(7-oxo-6,7,8,9,10,11-hexahydro-5H-3,8,11-triaza-benzo[a]fluoren-2-yl)-benzonitrile], the IC50 in experiment [2] was 8 nM.

Take `CC(C)N1CCN(c2ccc(-c3cc4c(cn3)CCc3c-4[nH]c4c3C(=O)NCC43CC3)cc2C#N)CC1` [Example 314, 2-(4-Isopropyl-piperazin-1-yl)-10-spirocyclopropyl-5-(7-oxo-6,7,8,9,10,11-hexahydro-5H-3,8,11-triaza-benzo[a]fluoren-2-yl)-benzonitrile]: the concentration for half-maximal inhibition (IC50) in experiment [2] stood at 12 nM.

As to `N#Cc1cc(-c2cc3c(cn2)CCc2c-3[nH]c3c2C(=O)NCC32CC2)ccc1N1CCN(CCO)CC1` [Example 315, 2-[4-(2-Hydroxy-ethyl)-piperazin-1-yl]-10-spirocyclopropyl-5-(7-oxo-6,7,8,9,10,11-hexahydro-5H-3,8,11-triaza-benzo[a]fluoren-2-yl)-benzonitrile], the IC50 in experiment [2] was 9 nM.

As for `CN1CCN(c2ccc(-c3cc4c(cn3)CCc3c-4[nH]c4c3C(=O)NCC43CC3)cn2)CC1` [Example 316, 2-[6-(4-Methyl-piperazin-1-yl)-pyridin-3-yl]-10-spirocyclopropyl-5,6,8,9,10,11-hexahydro-3,8,11-triaza-benzo[a]fluoren-7-one], the concentration for half-maximal inhibition (IC50) in experiment [2] is 11 nM.

Regarding `CN1CCN(c2c(F)cc(-c3cc4c(cn3)CCc3c-4[nH]c4c3C(=O)NCC43CC3)cc2C#N)CC1` [Example 317, 3-Fluoro-2-(4-methyl-piperazin-1-yl)-10-spirocyclopropyl-5-(7-oxo-6,7,8,9,10,11-hexahydro-5H-3,8,11-triaza-benzo[a]fluoren-2-yl)-benzonitrile], the IC50 in experiment [2] turned out to be 51 nM.

As for `CN(C)C1CCN(c2ccc(-c3cc4c(cn3)CCc3c-4[nH]c4c3C(=O)NCC43CC3)cc2C#N)C1` (stereo not shown) [Example 318, 2-(3-Dimethylamino-pyrrolidin-1-yl)-10-spirocyclopropyl-5-(7-oxo-6,7,8,9,10,11-hexahydro-5H-3,8,11-triaza-benzo[a]fluoren-2-yl)-benzonitrile], the IC50 in experiment [2] is 6 nM.

Consider `N#Cc1cc(-c2cc3c(cn2)CCc2c-3[nH]c3c2C(=O)NCC32CC2)ccc1CN1CCOCC1` [Example 319, 2-Morpholin-4-ylmethyl-10-spirocyclopropyl-5-(7-oxo-6,7,8,9,10,11-hexahydro-5H-3,8,11-triaza-benzo[a]fluoren-2-yl)-benzonitrile], for which, in experiment [2], the IC50 is 38 nM.

Take `CN1CCN(c2ccc(-c3cc4c(cn3)CCc3c-4[nH]c4c3C(=O)NC3(CC3)C4)cc2C#N)CC1` [Example 321, 2-(4-Methyl-piperazin-1-yl)-9-spirocyclopropyl-5-(7-oxo-6,7,8,9,10,11-hexahydro-5H-3,8,11-triaza-benzo[a]fluoren-2-yl)-benzonitrile]: the concentration for half-maximal inhibition (IC50) in experiment [2] amounted to 9 nM.

In the case of `O=C1NCC2(CNC2)c2[nH]c3c(c21)CCc1cnc(-c2ccc(CN4CCOCC4)c(F)c2)nc1-3` [Example 326, 2-(3-Aminomethyl-azetidin-3-yl)-8-(3-fluoro-4-morpholin-4-ylmethyl-phenyl)-4,5-dihydro-1H-1,7,9-triaza-cyclopenta[a]naphthalene-3-carboxylic acid lactam], in experiment [2], the IC50 worked out at 15 nM.

As for `O=C1NCC2(CNC2)c2[nH]c3c(c21)CCc1cnc(-c2ccc(N4CCOCC4)nc2)nc1-3` [Example 329, 2-(3-Aminomethyl-azetidin-3-yl)-8-(6-morpholin-4-yl-pyridin-3-yl)-4,5-dihydro-1H-1,7,9-triaza-cyclopenta[a]naphthalene-3-carboxylic acid lactam], the IC50 in experiment [2] was 6 nM.

These data come from patent publication US7838674B2, “Tetracyclic lactame derivatives” (Novartis AG, priority 2007, dated 2010).
